The subject of one assay is LC3. In words: Autophagy assay, LC3 immunoblot in human fibroblasts (Fed/Hbss, with bafilomycin A1). Type of assay: cell-based. Particulars: Hbss starvation, with BafA1. As to the method: 5 × 10^4 wild-type human fibroblasts were seeded in a 12-well plate and treated overnight with DMSO or different TRPML1 inhibitors (EDME, PRU-10, PRU-12). The day after, cells were treated for 3 h in full media (Fed) or HBSS supplemented with 10 mM HEPES (nutrient starved) in presence of DMSO or different TRPML1 inhibitors (EDME, PRU-10, PRU-12). For autophagic flux experiments, cells were co-treated with 100 nM of bafilomycin A1 (Sigma).
Total cell lysates were prepared using TRIS HCl 10 mM pH 8.0 and 0.2% SDS supplemented with protein and phosphatase inhibitors (Sigma). Protein concentration was determined using the Bradford method. After SDS–polyacrylamide gel electrophoresis (PAGE) and immunoblotting, the protein recognized by the specific antibody was visualized by chemiluminescence methods (Luminata Crescendo Western HRP substrate, Millipore) using HRP-conjugated anti-rabbit or anti-mouse secondary antibodies (Cell Signalling). Images were acquired using Li-Cor Odyssey Fc Imaging System and densitometric quantification of unsaturated images was performed using ImageJ software (NIH). Uncropped and unprocessed western blot scans are provided as Fig. S1. The following primary antibodies were used: LC3 (Novus Cat. No. NB100-2220, 1:1000 in 5% milk), TFEB (Cell Signaling Cat. No. 4240, 1:1000 in 5% BSA) and β-actin (Santa Cruz Cat. No. Sc-47778, 1: 1000 in 5% BSA).
(In general: Immunoblotting shows a protein as a band on a membrane.)

A further assay concerns the target T1, hTRPML2-YFP (Homo sapiens, UniProt Q8IZK6).
T1 construct: expressed in transfected cells
T1 sequence (Q8IZK6 1-566): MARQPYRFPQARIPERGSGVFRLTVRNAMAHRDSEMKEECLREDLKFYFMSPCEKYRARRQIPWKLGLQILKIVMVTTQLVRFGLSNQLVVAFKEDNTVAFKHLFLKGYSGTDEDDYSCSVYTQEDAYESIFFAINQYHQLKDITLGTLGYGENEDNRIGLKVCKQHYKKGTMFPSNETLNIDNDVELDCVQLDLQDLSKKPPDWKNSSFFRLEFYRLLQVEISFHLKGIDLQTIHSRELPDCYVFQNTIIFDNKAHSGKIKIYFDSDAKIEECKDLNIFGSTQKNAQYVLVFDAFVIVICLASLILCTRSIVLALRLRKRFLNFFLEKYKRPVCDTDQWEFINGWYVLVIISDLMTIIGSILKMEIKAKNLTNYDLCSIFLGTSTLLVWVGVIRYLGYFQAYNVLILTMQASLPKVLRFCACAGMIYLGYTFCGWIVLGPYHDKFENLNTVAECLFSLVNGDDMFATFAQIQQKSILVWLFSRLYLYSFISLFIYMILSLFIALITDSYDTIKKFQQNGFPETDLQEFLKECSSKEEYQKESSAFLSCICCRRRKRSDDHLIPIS
In words: Fluo-4 Ca2+ influx assay, HEK293 stably expressing hTRPML2-YFP, activated with ML-SA1. Type of assay: cell-based.

For assay [1], the target named is hTRPML1∆NC-YFP (Homo sapiens, UniProt Q9GZU1). Type of assay: cell-based. As to the method:
(§1) To identify inhibitors of TRPML1 and TRPML3, the Spectrum Collection compound library (MS Discoveries; 2000 compounds) and additional 430 bioactive compounds were screened. To this end, fluorometric Ca^2+ influx assays were performed by using the calcium dye Fluo-4/AM (Invitrogen, Thermo Fisher Scientific, Waltham, MA, USA) and a custom-made fluorescence imaging plate reader built into a robotic liquid handling station (Freedom Evo 150, Tecan, Männedorf, Switzerland). […] Screening compounds dissolved in DMSO (10 mM) were prediluted in 150 mM NaCl, 20 mM HEPES, pH 7.4, to a concentration of 200 µM. For primary screens, HEK293 stably expressing plasma membrane-targeted TRPML1 or TRPML3 were trypsinized and resuspended in cell culture medium supplemented with 4 µM Fluo-4/AM. After incubation at 37 °C for 30 min, the cell suspension was briefly centrifuged resuspended in HBS, and dispensed into black pigmented, clear-bottom 384-well microwell plates (Greiner μClear, Frickenhausen, Germany). Plates were placed into the FLIPR and fluorescence signals (excitation 470 nm, emission 515 nm) were recorded with a Zyla 5.5 camera (Andor, Belfast, UK) and the μManager software like previously described. In a first video, compound libraries were successively added to the cells with the Tecan 96-tip multichannel arm to a final concentration of 20 µM to map unspecific effects like autofluorescence or toxicity. In a second step the agonist ML-SA1 was pipetted in each well and fluorescence signals were recorded for 10 min. Analyses were done by calculating fluorescence intensities for each well and background areas with ImageJ (National Institutes of Health, Bethesda, MD, USA). Finally, the background was subtracted and the fluorescence intensities were normalized to initial intensities (F/F0). Concentration response curves were generated by the same procedure but compounds were manually prediluted in 96-well plates containing HBS, now supplemented with 0.1% bovine serum albumin. Here data was fitted to a four-parameter Hill equation to obtain Imin, Imax, IC50), and the Hill coefficient n.

Assay [2] concerns hTRPML1∆NC-YFP. Type of assay: cell-based, human. The note with it: for TRPML1:TRPML2 fold selectivity / TRPML1:TRPML3 fold selectivity: ratio of Fluo-4 IC50 values; for TRPML isoform selectivity profile: TRPML1, 2, 3 and TPC2, Fluo-4. As to the method:
as §1

The mark [3] stands for this setting: TRPML2 IC50, Fluo-4, 5 µM ML-SA1, Table S1.
Setting [4] is: read-out: TRPML1 IC50, Fluo-4, 5 µM ML-SA1, Fig. 2a/4, Table S1.

Structures are written as SMILES. pIC50: −log10 of the molar value. “Also recorded” adds a separate entry of the source. Read-outs that look alike come from different tables or passages of the source.

Chain of hTRPML1∆NC-YFP (Homo sapiens, UniProt Q9GZU1) (Q9GZU1 whole entry): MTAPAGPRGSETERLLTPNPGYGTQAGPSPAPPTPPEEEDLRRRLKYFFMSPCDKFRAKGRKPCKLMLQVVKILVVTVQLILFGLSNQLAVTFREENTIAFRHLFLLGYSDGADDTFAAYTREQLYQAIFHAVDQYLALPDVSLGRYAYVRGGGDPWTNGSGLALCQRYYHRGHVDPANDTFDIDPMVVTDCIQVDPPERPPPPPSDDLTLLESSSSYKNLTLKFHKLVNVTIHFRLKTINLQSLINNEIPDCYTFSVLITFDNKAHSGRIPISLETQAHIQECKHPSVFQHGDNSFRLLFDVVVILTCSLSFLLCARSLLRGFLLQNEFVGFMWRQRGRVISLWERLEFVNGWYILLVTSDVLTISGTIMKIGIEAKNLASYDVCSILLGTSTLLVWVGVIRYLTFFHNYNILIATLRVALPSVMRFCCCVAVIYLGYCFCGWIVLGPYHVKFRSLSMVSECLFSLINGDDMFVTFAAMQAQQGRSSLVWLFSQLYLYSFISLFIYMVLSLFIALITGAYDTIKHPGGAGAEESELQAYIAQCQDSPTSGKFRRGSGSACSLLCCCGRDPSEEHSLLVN

Turning to `COc1ccc2c(c1)CC[C@@H]1[C@@H]2CC[C@]2(C)[C@@H](O)CC[C@@H]12` [EDME, 17β-estradiol methyl ether], the “concentration showing efficacy on autophagy (LC3)” value (from here on “concentration showing efficacy”) in the assay with LC3 is recorded as 1 µM. The pIC50 on hTRPML2-YFP (Fluo-4, 5 µM ML-SA1, Table S1, read-out: TRPML2 IC50) was 5.23. Besides, the “inhibitory effect on TRPML1” value on hTRPML1∆NC-YFP [1] (12.5 µM compound, 5 µM ML-SA1, Fig. 1f) was “completely blocks TRPML1”. Moreover, at hTRPML1∆NC-YFP [1] (read-out: TRPML1 IC50, concentration-response retest of screening hits and steroids, Fluo-4, 5 µM ML-SA1, Fig. 1b-e, S1), the pIC50 is 6.30. Also, the “primary screen result” value in the assay with hTRPML1∆NC-YFP [2] (20 µM compound, 5 µM ML-SA1, TRPML1 and TRPML3) is given as “TRPML1 selective hit”. In addition, the “TRPML1 versus TRPML3 selectivity” value in the assay with hTRPML1∆NC-YFP [2] (Fluo-4, TRPML1 vs TRPML3, 5 µM ML-SA1) was “highly TRPML1-selective”. Moreover, in the assay with hTRPML1∆NC-YFP [2], the “TRPML1:TRPML2 fold selectivity” value came out at 9.14 fold and the “TRPML1:TRPML3 fold selectivity” value was found to be 30.47 fold.
`C=Cc1ccc2c(c1)CC[C@@H]1[C@@H]2CC[C@]2(C)[C@@H](O)CC[C@@H]12` [PRU-10]: in the assay on LC3, the “concentration showing efficacy” value amounted to 3 µM. Also, the pIC50 on hTRPML2-YFP (setting [3]) was 5.27. For the same compound, on hTRPML1∆NC-YFP [1] (setting [4]), the pIC50 was 6.39. In the assay with hTRPML1∆NC-YFP [2], the “TRPML isoform selectivity profile” value is listed as “further improved selectivity profile compared to EDME; also recorded: good TRPML isoform selectivity profile”, the “TRPML1:TRPML2 fold selectivity” value stood at 13.17 fold and the “TRPML1:TRPML3 fold selectivity” value turned out to be 38.61 fold.
`CC(=O)c1ccc2c(c1)CC[C@@H]1[C@@H]2CC[C@]2(C)[C@@H](O)CC[C@@H]12` [PRU-12]: in the assay with LC3, the “concentration showing efficacy” value was determined as 1 µM. This compound showed a pIC50 at hTRPML2-YFP (setting [3]) of 5.28. Besides, the pIC50 on hTRPML1∆NC-YFP [1] (setting [4]) was 6.55. Further, in the assay on hTRPML1∆NC-YFP [2], the “TRPML isoform selectivity profile” value is on record as “further improved selectivity profile compared to EDME; also recorded: good TRPML isoform selectivity profile”, the “TRPML1:TRPML2 fold selectivity” value is 18.86 fold and the “TRPML1:TRPML3 fold selectivity” value is listed as 50.29 fold.
